{"source": "patent US12178875B2", "about": "“Lymphatic system-directing lipid prodrugs” (Seaport Therapeutics, Inc., priority 2017, dated 2024)", "key": {"[1]": {"test": "Lymphatic transport assay in mesenteric lymph-duct cannulated rats", "type": "in vivo, rat", "conditions": "total MPA related compound, intraduodenal infusion, anaesthetised mesenteric lymph-duct cannulated rats; class symbols", "experimental": "In order to assess the lymphatic transport of disclosed lipid prodrugs in rats, the mesenteric lymph ducts of the rats used in this study were cannulated to allow continual collection of mesenteric lymph. Lipid formulations containing the compound of interest were then administered to the animals, lymph was collected, and drug concentrations in the lymph samples were quantified.\nLipid-based formulations of the compounds of the invention or control compounds were prepared as previously described (Trevaskis, N. L. et al., Pharmaceutical Research, 2005, 22(11), 1863-1870, WO 2016/023082, and WO 2017/041139, hereby incorporated by reference.\nIn brief, either 1 or 2 mg of test prodrug, 40 mg oleic acid and 25 mg Tween 80 were mixed in a glass vial and incubated at 37° C. for 12-18 h to equilibrate. An aqueous phase consisting of 5.6 ml phosphate buffered saline (PBS, pH 7.4) was subsequently added to the lipid phase (MPA was dissolved in PBS for the preparation of MPA containing formulations) and the formulation emulsified by ultrasonication with a Misonix XL 2020 ultrasonic processor (Misonix, Farmingdale, NY, USA) equipped with a 3.2-mm microprobe tip running at 30% of the maximal amplitude of […] and a frequency of 20 kHz for 2 min at room temperature. Doses for administering to more than one animal can be prepared in one batch by suitably increasing the quantities given above. Drug/prodrug concentrations in all formulations were verified using HPLC-MS.\nMale Sprague-Dawley (SD) rats were selected for the lymphatic transport studies involving mycophenolic acid lipid prodrugs. Depending on the therapeutic agent, male, female, or both may be selected for study. Rats (typically 240-320 g) were maintained on a standard diet and fasted overnight with free access to water prior to experiments.\nAnesthetized rats were placed on a heated pad at 37° C. and cannulas inserted into the duodenum (for formulation administration and rehydration), mesenteric lymph duct (for lymph collection), and carotid artery (in cases where blood collection was conducted). Post-surgery, rats were re-hydrated for 0.5 h via intraduodenal infusion of normal saline at 2.8 mL/h. […] The collection tubes were changed hourly and lymph flow was measured gravimetrically. […]\nDrug concentration in lymph is expressed as total drug and includes free drug and drug associated with different glycerides. […]\nTransport of compounds into lymph during each hourly collection period was calculated from the product of the volume of lymph collected and the measured concentrations in lymph. For fluorescently-labelled compounds such as a BDP-conjugate, the concentrations of total compound may be measured by fluorescence spectroscopy without hydrolysis. […]"}, "[2]": {"test": "In vitro release of therapeutic agent from prodrugs in plasma supplemented with lipoprotein lipase", "type": "in vitro ADME, rat", "experimental": "The percentage of MPA released at 60 minutes in LPL-supplemented rat plasma was also determined for selected compounds. […] The designation “**” indicates a release % of >25% to 50%. The designation “***” indicates a release % of >50% to 75%. The designation “****” indicates a release % of >75%.\nIn order to probe the release of free drug from TG prodrugs in the systemic circulation, prodrugs were incubated with plasma (rat, mouse, dog, pig or human) supplemented with lipoprotein lipase (LPL, 200 IU/ml). LPL is a key enzyme required for the hydrolysis of lipoprotein associated TG in the systemic circulation and is therefore expected to be a key contributor to lipolysis of the re-esterified drug-TG construct in plasma, largely via liberation of fatty acids in the sn-1 and the sn-3 position of the TG-mimetic, prior to drug release from the 2′ position via esterase hydrolysis. LPL is […] is tethered to the luminal surface of vascular endothelial cells under physiological conditions. In the current in vitro studies, plasma was therefore supplemented with LPL to better reflect the in vivo situation. To start hydrolysis, 10 μl of LPL solution (10,000 IU/ml) was added to a mixture of 10 μl of prodrug solution (1 mg/ml dissolved in acetonitrile) and 500 μl of blank plasma. The mixture was incubated at 37° C. Samples (20 μl) of the incubation solution were taken at 0, 5, 15, 30, 60, 90, 120 and 180 minutes post-incubation and added to 180 μl of MeCN to stop lipolysis. The mixture was vortexed and centrifuged at 4500×g for 5 minutes to precipitate proteins prior to analysis. The supernatant was analyzed by HPLC-MS/MS for the potential products (MG form, acid form, and free drug) of prodrug hydrolysis.\nTo assess the stability and release profile of compounds of the present invention, compounds TAC-I-18 and TAC-I-20 were incubated with rat plasma and the concentrations of compounds, parent drug tacrolimus, and acid were monitored by LCMS for about three hours."}, "[3]": {"conditions": "mice, oral, multiple dose study: 2 times daily for 2 days, samples on the 3rd day (FIG. 8A/8B)", "experimental": "This experiment included a single and multiple dose study. In the multiple dose study, dosing of either free MPA or MPA-2-TG (MPA-I-34, structure below) 2 times daily was performed for 2 days followed by collecting samples from mesenteric or peripheral lymph nodes on the 3rd day after dosing.\nThe concentrations of free MPA were measured for both groups of mice."}, "[4]": {"conditions": "rat plasma supplemented with LPL, 180 min (FIG. 9, FIG. 10)"}}}
{"molecule": "CCCCCCCCCCCCCCCC(=O)OCC(COC(=O)CCCCCCCCCCCCCCC)OC(=O)CCCCCC(=O)Oc1c(C/C=C(\\C)CCC(=O)OC)c(OC)c(C)c2c1C(=O)OC2", "note": "[MPA-I-19]", "values": [{"measurement": "Cumulative lymphatic transport % dose (Mean ± SD, or Range if n = 2)", "setting": "[1]", "result": "A (greater than 10% (>10%))"}, {"measurement": "Percentage MPA release at 60 min in LPL supplemented rat plasma", "setting": "[2]; 60 min, n = 3 unless specified otherwise", "result": "**** (a release % of >75%)"}]}
{"molecule": "CCCCCCCCCCCCCCCC(=O)OCC(COC(=O)CCCCCCCCCCCCCCC)OC(=O)CC(C)CCCCCCCC(C)C(=O)Oc1c(C/C=C(\\C)CCC(=O)OC)c(OC)c(C)c2c1C(=O)OC2", "note": "(stereo not drawn) [MPA-I-20]", "values": [{"measurement": "monoglyceride (MG) peak after 180 min", "setting": "[2]; [4]", "result": "almost completely disappeared"}]}
{"molecule": "CCCCCCCCCCCCCCCC(=O)OCC(COC(=O)CCCCCCCCCCCCCCC)OC(=O)CC(C)CCCCCCCC(C)C(=O)OCCCCC(=O)Oc1c(C/C=C(\\C)CCC(=O)OC)c(OC)c(C)c2c1C(=O)OC2", "note": "(stereo not drawn) [MPA-I-22, (E)-12-(1,3-Bis(palmitoyloxy)propan-2-yl) 1-(5-((6-methoxy-5-(6-methoxy-3-methyl-6-oxohex-2-en-1-yl)-7-methyl-3-oxo-1,3-dihydroisobenzofuran-4-yl)oxy)-5-oxopentyl) 2,10-dimethyldodecanedioate]", "values": [{"measurement": "MPA released after 180 min", "setting": "[2]; [4]", "result": "about 80%"}, {"measurement": "monoglyceride (MG) peak after 180 min", "setting": "[2]; [4]", "result": "almost completely disappeared"}]}
{"molecule": "CCCCCCCCCCCCCCCC(=O)OCC(COP(=O)([O-])OCC[N+](C)(C)C)OC(=O)CC/C(C)=C/Cc1c(O)c2c(c(C)c1OC)COC2=O", "note": "(stereo not drawn) [MPA-I-39]", "values": [{"measurement": "Cumulative lymphatic transport % dose (Mean ± SD, or Range if n = 2)", "setting": "[1]", "result": "C (less than 1% and greater than 0.24% (<1% and >0.24%))"}]}
{"molecule": "CCCCCCCCCCCCCCCC(=O)OCC(COC(=O)CCCCCCCCCCCCCCC)OC(=O)COC(=O)CC/C(C)=C/Cc1c(O)c2c(c(C)c1OC)COC2=O", "note": "[MPA-I-46]", "values": [{"measurement": "Cumulative lymphatic transport % dose (Mean ± SD, or Range if n = 2)", "setting": "[1]", "result": "A (greater than 10% (>10%))"}]}
{"molecule": "CCCCCCCCCCCCCCCC(=O)OCC(COC(=O)CCCCCCCCCCCCCCC)OC(=O)CC(C)COC(=O)CC/C(C)=C/Cc1c(O)c2c(c(C)c1OC)COC2=O", "note": "(stereo not drawn) [MPA-I-50]", "values": [{"measurement": "Cumulative lymphatic transport % dose (Mean ± SD, or Range if n = 2)", "setting": "[1]", "result": "A (greater than 10% (>10%))"}]}
{"molecule": "CCCCCCCCCCCCCCCC(=O)OCC(COC(=O)CCCCCCCCCCCCCCC)OC(=O)CC/C(C)=C/Cc1c(O)c2c(c(C)c1OC)COC2=O", "note": "[MPA-TG]", "values": [{"measurement": "concentrations of free MPA in mesenteric lymph nodes compared with MPA", "setting": "[3]", "result": "Much higher concentrations"}]}
